In patent publication US8440613B2, “Controlling diseases caused by trichomonadida” (Bayer Intellectual Property GmbH, priority 2008, dated 2013):

Columns and labels:
[1] = test system: Heterakis spumosa; conditions: murine nematode Heterakis spumosa; oral dose; refs (13, 15); cited from earlier work
[2] = test system: Heterakis spumosa; assay: Anthelmintic activity against Heterakis spumosa in mice; format: in vivo; conditions: Heterakis spumosa (mouse); treated on four consecutive days 35 days post-infection; worms counted day 7 after treatment
Experimental: Male mice (strain Bor CFW, body weight between 25 and 30 g) are kept in Makrolon cages (3 animals/cage) and fed ad lib with water and SNIFF rat food (10 mm pellets). Mice are infected with Heterakis spumosa by oral administration of 90 embryonated eggs. The eggs had been obtained from female worms which had been isolated from the mices colon 40 days post-infection. The eggs were incubated for a further 3 weeks at 37° C. 35 days post-infection, the mice were treated with the respective dose of PF1022A or emodepside on four consecutive days. PF1022A is suspended in Cremophor EL. On day 7 after the treatment, the mice are sacrificed, the ileum/caecum/colon region is removed, and the worms are counted with the naked eye. The ratio of the number of expelled worms in percent of the total number of worms in untreated, infected control animals is defined as the measure for the anthelmintic activity.

[3] = test system: histomonad field strain; assay: Cage experiments; histomonad activity in turkeys; format: in vivo; conditions: day -4 to +14; for Average lesions in the appendix / Infection-related lesions in the liver: score 0=no lesions, 4=severe lesions
Experimental: Histomonad-free male turkeys aged 10 days received nifurtimox or the comparative compound nitarson in the concentration given in “ppm” together with the feed from day −4 (=4 days prior to infection) to day 14. Infection is carried out on day 0, 10 animals are kept per group cage. 1 to 3 such groups are employed per dose.
The infection is carried out with a histomonad field strain which is passaged in the laboratory and stored in liquid nitrogen. On day 0, in each case 5 animals of a cage (with the exception of the noninfected control) are infected intracloacally with 250 000 histomonads in each case 1 ml of Dwyer's medium (=direct infection). After a few days, these infected animals excrete fresh histomonads and thus transmit the pathogen to the remaining 5 animals of the cage (=indirect infection).
To assess the activity, the criteria of McDougald and Hu 2001 (7) are taken into consideration: • the infection-caused mortality • the weight gain from the beginning to the end of the experiment • feed consumption • feed conversion • macroscopic assessment of the infection-related lesions in the appendices (caecum) and in the liver. In this assessment, score 0=no lesions and score 4=severe lesions.

[4] = test system: Ascaridia galli; conditions: cited from earlier work
[5] = direct infection no, nitarsone 187.5 ppm in feed, study of Table 1
[6] = direct infection no, nitarsone 187.5 ppm in feed, study of Table 2
[7] = direct infection yes, nitarsone 187.5 ppm in feed, study of Table 1
[8] = direct infection yes, nitarsone 187.5 ppm in feed, study of Table 2
[9] = nitarsone 187.5 ppm in feed, study of Table 1
[10] = nitarsone 187.5 ppm in feed, study of Table 2
[11] = direct infection no, nifurtimox 30 ppm in feed, study of Table 1
[12] = direct infection no, nifurtimox 60 ppm in feed, study of Table 1
[13] = direct infection no, nifurtimox 100 ppm in feed, study of Table 2
[14] = direct infection no, nifurtimox 120 ppm in feed, study of Table 1
[15] = direct infection no, nifurtimox 200 ppm in feed, study of Table 1
[16] = direct infection no, nifurtimox 200 ppm in feed, study of Table 2
[17] = direct infection no, nifurtimox 300 ppm in feed, study of Table 2
[18] = direct infection no, nifurtimox 400 ppm in feed, study of Table 2
[19] = direct infection yes, nifurtimox 30 ppm in feed, study of Table 1
[20] = direct infection yes, nifurtimox 60 ppm in feed, study of Table 1
[21] = direct infection yes, nifurtimox 100 ppm in feed, study of Table 2
[22] = direct infection yes, nifurtimox 120 ppm in feed, study of Table 1
[23] = direct infection yes, nifurtimox 200 ppm in feed, study of Table 1
[24] = direct infection yes, nifurtimox 200 ppm in feed, study of Table 2
[25] = direct infection yes, nifurtimox 300 ppm in feed, study of Table 2
[26] = direct infection yes, nifurtimox 400 ppm in feed, study of Table 2
[27] = nifurtimox 30 ppm in feed, study of Table 1
[28] = nifurtimox 60 ppm in feed, study of Table 1
[29] = nifurtimox 100 ppm in feed, study of Table 2
[30] = nifurtimox 120 ppm in feed, study of Table 1
[31] = nifurtimox 200 ppm in feed, study of Table 1
[32] = nifurtimox 200 ppm in feed, study of Table 2
[33] = nifurtimox 300 ppm in feed, study of Table 2
[34] = nifurtimox 400 ppm in feed, study of Table 2

CC(C)CC1C(=O)OC(Cc2ccc(N3CCOCC3)cc2)C(=O)N(C)C(CC(C)C)C(=O)OC(C)C(=O)N(C)C(CC(C)C)C(=O)OC(Cc2ccc(N3CCOCC3)cc2)C(=O)N(C)C(CC(C)C)C(=O)OC(C)C(=O)N1C [Emodepside, cyclo[(R)-lactoyl-N-methyl-L-leucyl-(R)-3-(p-morpholinophenyl)lactoyl-N-methyl-L-leucyl-(R)-lactoyl-N-methyl-L-leucyl-(R)-3-(p-morpholinophenyl)lactoyl-N-methyl-L-leucyl]]
Dose at which active against Heterakis spumosa [1]: 1 to 10 mg/kg | Dose with full activity [2]: 1 to 10 mg/kg

O=[N+]([O-])c1ccc([As](=O)(O)O)cc1 [Nita., nitarsone]
Mean weight gain (g) between day 0 and the time of death [3, 5]: 782 g | Mean weight gain (g) between day 0 and the time of death [3, 6]: 725 g | Mean weight gain (g) between day 0 and the time of death [3, 7]: 541 g | Mean weight gain (g) between day 0 and the time of death [3, 8]: 426 g | Mean feed consumption between day 0 and day 14 [3, 9]: 11.64 kg | Mean feed conversion between day 0 and day 14 [3, 9]: 1.77 | Mortality caused by histomoniasis [3, 9]: 1 | Mean feed consumption between day 0 and day 14 [3, 10]: 9.82 kg | Mean feed conversion between day 0 and day 14 [3, 10]: 1.79 | Mortality caused by histomoniasis [3, 10]: 2 | Average lesions in the appendix [3, 5]: 0.00 | Infection-related lesions in the liver [3, 5]: 0.00 | Average lesions in the appendix [3, 6]: 0.29 | Infection-related lesions in the liver [3, 6]: 0.21 | Average lesions in the appendix [3, 7]: 2.26 | Infection-related lesions in the liver [3, 7]: 0.13 | Average lesions in the appendix [3, 8]: 3.07 | Infection-related lesions in the liver [3, 8]: 0.79

CC(C)CC1C(=O)OC(Cc2ccccc2)C(=O)N(C)C(CC(C)C)C(=O)OC(C)C(=O)N(C)C(CC(C)C)C(=O)OC(Cc2ccccc2)C(=O)N(C)C(CC(C)C)C(=O)OC(C)C(=O)N1C (stereo not drawn) [PF1022A]
Dose at which active against Heterakis spumosa [1]: 50 mg/kg | Dose with full activity ([4]; Ascaridia galli (chicken)): 2 mg/kg | Dose at which the compound acts against Ascaridia galli ([4]; Ascaridia galli in chickens, ref (16)): 2 mg/kg | Dose with full activity [2]: 50 mg/kg

CC1CS(=O)(=O)CCN1N=Cc1ccc([N+](=O)[O-])o1 (stereo not drawn) [nifurtimox]
Mean weight gain (g) between day 0 and the time of death [3, 11]: 730 g | Mean weight gain (g) between day 0 and the time of death [3, 12]: 838 g | Mean weight gain (g) between day 0 and the time of death [3, 13]: 581 g | Mean weight gain (g) between day 0 and the time of death [3, 14]: 744 g | Mean weight gain (g) between day 0 and the time of death [3, 15]: 744 g | Mean weight gain (g) between day 0 and the time of death [3, 16]: 525 g | Mean weight gain (g) between day 0 and the time of death [3, 17]: 750 g | Mean weight gain (g) between day 0 and the time of death [3, 18]: 832 g | Mean weight gain (g) between day 0 and the time of death [3, 19]: 235 g | Mean weight gain (g) between day 0 and the time of death [3, 20]: 304 g | Mean weight gain (g) between day 0 and the time of death [3, 21]: 135 g | Mean weight gain (g) between day 0 and the time of death [3, 22]: 182 g | Mean weight gain (g) between day 0 and the time of death [3, 23]: 264 g | Mean weight gain (g) between day 0 and the time of death [3, 24]: 270 g | Mean weight gain (g) between day 0 and the time of death [3, 25]: 450 g | Mean weight gain (g) between day 0 and the time of death [3, 26]: 691 g | Mean feed consumption between day 0 and day 14 [3, 27]: 9.00 kg | Mean feed conversion between day 0 and day 14 [3, 27]: 1.88 | Mortality caused by histomoniasis [3, 27]: 5 | Mean feed consumption between day 0 and day 14 [3, 28]: 9.68 kg | Mean feed conversion between day 0 and day 14 [3, 28]: 1.70 | Mortality caused by histomoniasis [3, 28]: 6 | Mean feed consumption between day 0 and day 14 [3, 29]: 6.69 kg | Mean feed conversion between day 0 and day 14 [3, 29]: 2.32 | Mortality caused by histomoniasis [3, 29]: 13 | Mean feed consumption between day 0 and day 14 [3, 30]: 8.70 kg | Mean feed conversion between day 0 and day 14 [3, 30]: 1.88 | Mortality caused by histomoniasis [3, 30]: 5 | Mean feed consumption between day 0 and day 14 [3, 31]: 9.59 kg | Mean feed conversion between day 0 and day 14 [3, 31]: 1.91 | Mortality caused by histomoniasis [3, 31]: 4 | Mean feed consumption between day 0 and day 14 [3, 32]: 9.14 kg | Mean feed conversion between day 0 and day 14 [3, 32]: 2.33 | Mortality caused by histomoniasis [3, 32]: 4 | Mean feed consumption between day 0 and day 14 [3, 33]: 10.40 kg | Mean feed conversion between day 0 and day 14 [3, 33]: 1.83 | Mortality caused by histomoniasis [3, 33]: 2 | Mean feed consumption between day 0 and day 14 [3, 34]: 11.79 kg | Mean feed conversion between day 0 and day 14 [3, 34]: 1.55 | Mortality caused by histomoniasis [3, 34]: 0 | Average lesions in the appendix [3, 11]: 0.29 | Infection-related lesions in the liver [3, 11]: 0.29 | Average lesions in the appendix [3, 12]: 0.00 | Infection-related lesions in the liver [3, 12]: 0.00 | Average lesions in the appendix [3, 13]: 1.08 | Infection-related lesions in the liver [3, 13]: 0.58 | Average lesions in the appendix [3, 14]: 0.53 | Infection-related lesions in the liver [3, 14]: 0.27 | Average lesions in the appendix [3, 15]: 0.47 | Infection-related lesions in the liver [3, 15]: 0.13 | Average lesions in the appendix [3, 16]: 1.80 | Infection-related lesions in the liver [3, 16]: 0.73 | Average lesions in the appendix [3, 17]: 0.79 | Infection-related lesions in the liver [3, 17]: 0.07 | Average lesions in the appendix [3, 18]: 0.27 | Infection-related lesions in the liver [3, 18]: 0.00 | Average lesions in the appendix [3, 19]: 3.73 | Infection-related lesions in the liver [3, 19]: 2.53 | Average lesions in the appendix [3, 20]: 3.53 | Infection-related lesions in the liver [3, 20]: 2.53 | Average lesions in the appendix [3, 21]: 3.79 | Infection-related lesions in the liver [3, 21]: 2.00 | Average lesions in the appendix [3, 22]: 4.00 | Infection-related lesions in the liver [3, 22]: 1.80 | Average lesions in the appendix [3, 23]: 3.80 | Infection-related lesions in the liver [3, 23]: 1.33 | Average lesions in the appendix [3, 24]: 3.67 | Infection-related lesions in the liver [3, 24]: 1.33 | Average lesions in the appendix [3, 25]: 2.53 | Infection-related lesions in the liver [3, 25]: 0.40 | Average lesions in the appendix [3, 26]: 1.20 | Infection-related lesions in the liver [3, 26]: 0.00
